Measured values reported in patent publication US11576901B2, “Methods for treating viral infection” (HOWARD UNIVERSITY, priority 2016, dated 2023).

Tests used:
HSV-1 = test: Plaque forming assay, Hep-2 cell monolayers infected with HSV-1; type: cell-based; details: Hep-2 cells, 100 μM
Protocol: The ability of a virus to infect cells can be assessed using a plaque assay. In a plaque assay, an infected cell culture is grown under a nutrient gel. During culturing, the virus being study infects cells and replicates. However, the spread of virus to other cells is limited by the overlaying nutrient gel. As such, replicated virus released from one infected cell can only infect neighboring cells. The spread of virus amongst neighboring cells creates a plaque that can be visualized by staining. By counting the visible plaques, the amount of plaque forming units (pfu) per mL can be determined. If cells treated with a compound display a reduced amount of pfu compared to cells not treated with the compound after being infected with same amount of viral particles, then the reduction in pfu would have to be result of the ability of the […] virus. Thus, the ability of a compound in accordance with General Formula 1, including derivatives in accordance with any of General Formulae 1-1 to 1-20, to inhibit the ability of HSV-1 to proliferate can be assessed with a plaque assay.
Hep-2 cell monolayers were placed in well plates. The plated Hep-2 cells were treated with either DSMO as a control, 100 μM SD-29 or 100 μM SD29-12. A total of 6 well plates were prepared for each treatment condition. To each treated well plate an HSV-1 infecting solution comprising 1 mL of supernatants containing of the same amount of serially diluted HSV-1 particles were added. Accordingly, the treated well plates were infected with infection solutions containing the same amount of HSV-1 particles. After adsorption for 2 hours, the medium was removed and the treated cells were washed twice with serum-free DMEM and overlaid with phenol-free DMEM containing 5% FCS, 0.5% low-melting point agarose (GIBCO), and 1% penicillin-streptomycin. After either 0, 6, 12, 24 hours, the plaques present in each treated well plate were stained red and the number of plaques presented counted. Table 1 reports the mean plaque forming unit (pfu) determined for each treated well plate after averaging the number of pfu from the different plates receiving the same treatment.

[1] = system: HIV1 modified pNL4-3.Luc.R-E-virus; test: Western assay of HIV p24 gag expression in infected CEM T cells; type: cell-based; details: Western assay with HIV p24 antibody, FIG. 4
Text: The ability of a compound in accordance with General Formula 1, including derivatives in accordance with General Formulae 1-1 to 1-20, or pharmaceutically acceptable salts thereof, to inhibit the expression of at least a portion of a virus genome containing an IRES sequence can be also be determined by assessing the expression of a native protein within a viral genome. In some embodiments, the ability of a compound or pharmaceutically acceptable salt to inhibit expression of native protein can be assessed by using antibodies for a protein normally expressed from the virus genome. For example, HIV p24 gag is a protein normally expressed by HIV1 that can be detected using the HIVI p24 antibody. Accordingly, compounds in accordance with General Formula 1, including derivatives in accordance with any of General Formulae 1-1 to 1-20, or pharmaceutically acceptable salts thereof, can be assessed for the ability to inhibit proliferation of the HIV1 by infecting CEM T cells with the HIV1 modified pNL4-3.Luc.R-E-virus and assessing the expression of HIV p24 gag with the HIV p24 antibody. […]
A compound or salt may be wrongly classified as capable of inhibiting expression of at least a portion of a virus genome containing an IRES sequence due to unequal loading of proteins within an assay. […] In some embodiments, equivalent protein loading can be assessed by ponceau staining. […]

| Structure (SMILES) | melting point [°C] | mean plaque forming unit (pfu) (HSV-1; 0 hpi) | mean plaque forming unit (pfu) (HSV-1; 6 hpi) | mean plaque forming unit (pfu) (HSV-1; 12 hpi) | mean plaque forming unit (pfu) (HSV-1; 24 hpi) | expression of HIV p24 gag [1] |
| --- | --- | --- | --- | --- | --- | --- |
| Nn1c(-c2cccc(F)c2)n[nH]c1=S [5e, 4-amino-5-(3-fluorophenyl)-2,4-dihydro-3H-1,2,4-triazole-3-thione] | 220 | – | – | – | – | – |
| COc1ccc(-c2nnc(SCC(=O)O)n2N)cc1 [SD-29-12] | – | 0 | 380 | 3600 | 2600000 | does not inhibit expression of HIV p24 gag |
